Measured values as given in patent publication US20230061736A1, “GPR119 AGONISTS” (Kallyope, Inc., priority 2019, published 2023).

Molecular target: T1, human GPR119 (hGPR119) (Homo sapiens, UniProt Q8TDV5)
T1 construct: expressed in transfected cells
T1 sequence (Q8TDV5 1-335): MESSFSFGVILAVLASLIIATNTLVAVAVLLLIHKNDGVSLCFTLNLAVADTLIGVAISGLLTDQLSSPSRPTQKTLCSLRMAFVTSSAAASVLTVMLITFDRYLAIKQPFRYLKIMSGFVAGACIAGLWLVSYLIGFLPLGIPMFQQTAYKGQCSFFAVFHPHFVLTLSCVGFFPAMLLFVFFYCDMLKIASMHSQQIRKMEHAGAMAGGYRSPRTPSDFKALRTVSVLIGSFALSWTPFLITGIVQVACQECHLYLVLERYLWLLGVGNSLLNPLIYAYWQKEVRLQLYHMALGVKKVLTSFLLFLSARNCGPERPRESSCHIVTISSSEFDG
Experiment: cAMP accumulation assay (cAMP Gs dynamic HTRF kit)
Assay type: cell-based
Conditions: CHO-K1 cells stably expressing hGPR119, 4-parameter fit; for Emax: 1 h, % activity normalized to Max/Min controls; for EC50: cAMP accumulation
Experimental: CHO-K1 cells stably expressing human GPR119 (hGPR119) were prepared by transfection of a GPR119-carrying plasmid using Lipofectamine 2000 (following manufacturer instructions). A stable cell line was established using the limiting dilution method with geneticine selection. Assay-ready frozen (ARF) cells were prepared and used throughout the study.
The assay was performed in a 384-well plate format using the cAMP Gs dynamic assay kit from Cisbio. ARF cells expressing hGPR119 were thawed, washed and then resuspended in cAMP stimulation buffer at a cell density of 1.1×10^6 cells/mL. Cells were plated at a density of ˜10,000 cells/well (9 μL/well). Dose response curves for the tested compounds were prepared in a cAMP stimulation buffer, containing 0.1% Tween 80 at 4 fold the final concentration. The compounds were then transferred to the cell plates using BRAVO (3 μL/well) and the plates were incubated for 60 minutes at 37° C./5% CO2. Detection buffer (10 μL, prepared as described in the cAMP Gs dynamic kit) were added to each well, and the plates were incubated at ambient temperature for 1 hr.
RT-FRET was measured using a ClarioSTAR plate reader, calculating the ratio between emissions at 665 nm and 620 nm (HTRF ratio). The HTRF ratio for positive (Max) and negative (Min) controls were used to normalize HTRF data and generate values for % activity. EC50 and Max activity values were determined using a standard 4-parameter fit.

Compound | Emax [%] | EC50 [nM]
COCC1(CNC[C@H](O)[C@@H](O)[C@H](O)[C@H](O)CO)CCN(C(=O)Cc2ccc(OCCCC3CCN(c4ncc(Cl)cn4)CC3)cc2F)C1 (stereo partly drawn) [Example 121, 2-[4-[3-[1-(5-chloropyrimidin-2-yl)-4-piperidyl]propoxy]-2-fluoro-phenyl]-1-[3-(methoxymethyl)-3-[[[r(2S,3R,4R,5R)-2,3,4,5,6-pentahydroxyhexyl]amino]methyl]pyrrolidin-1-yl]ethanone] | 100 to 130 | ≤ 100
O=C(Cc1ccc(OCCCC2CC3(CCN(c4ncc(Cl)cn4)CC3)C2)cc1F)N1CC(CNC[C@H](O)[C@@H](O)[C@H](O)[C@H](O)CO)C1 [Example 105, 2-[4-[3-[7-(5-chloropyrimidin-2-yl)-7-azaspiro[3.5]nonan-2-yl]propoxy]-2-fluoro-phenyl]-1-[3-[[[(2S,3R,4R,5R)-2,3,4,5,6-pentahydroxyhexyl]amino]methyl]azetidin-1-yl]ethanone] | 100 to 130 | ≤ 100
COCc1cnc(N2CCC(CCCCOc3cc(F)c(CC(=O)N4CC(CNC[C@H](O)[C@@H](O)[C@H](O)[C@H](O)CO)C4)c(F)c3)CC2)nc1 (racemic) [Example 85, 2-[2,6-difluoro-4-[4-[1-[5-(methoxymethyl)pyrimidin-2-yl]-4-piperidyl]butoxy]phenyl]-1-[3-[[[rac-(2S,3R,4R,5R)-2,3,4,5,6-pentahydroxyhexyl]amino]methyl]azetidin-1-yl]ethanone] | 100 to 130 | 100 to 1000
COCc1cnc(N2CCC([C@H]3C[C@H]3CCOc3ccc(CC(=O)N4CC(CNC[C@H](O)[C@@H](O)[C@H](O)[C@H](O)CO)C4)c(F)c3)CC2)nc1 (mixture of isomers) [Example 97, 2-[2-fluoro-4-[2-[rac-(1S,2R)-2-[1-[5-(methoxymethyl)pyrimidin-2-yl]-4-piperidyl]cyclopropyl]ethoxy]phenyl]-1-[3-[[[(2S,3R,4R,5R)-2,3,4,5,6-pentahydroxyhexyl]amino]methyl]azetidin-1-yl]ethanone] | 100 to 130 | 100 to 1000
CCCc1cnc(N2CCC(CCCOc3ccc(CC(=O)N4CC(CNC(CO)(CO)CO)C4)c(F)c3)CC2)nc1 [Example 72, 1-(3-(((1,3-dihydroxy-2-(hydroxymethyl)propan-2-yl)amino)methyl)azetidin-1-yl)-2-(2-fluoro-4-(3-(1-(5-propylpyrimidin-2-yl)piperidin-4-yl)propoxy)phenyl)ethan-1-one] | ≥ 130 | ≤ 100
O=C(Cc1ccc(OCCCCC2CC3(CCN(c4ncc(Cl)cn4)CC3)C2)cc1F)N1CC(CNC[C@H](O)[C@@H](O)[C@H](O)[C@H](O)CO)C1 [Example 106, 2-[4-[4-[7-(5-chloropyrimidin-2-yl)-7-azaspiro[3.5]nonan-2-yl]butoxy]-2-fluoro-phenyl]-1-[3-[[[(2S,3R,4R,5R)-2,3,4,5,6-pentahydroxyhexyl]amino]methyl]azetidin-1-yl]ethanone] | 100 to 130 | 100 to 1000
O=C(Cc1ccc(OCCCC2CCN(c3ncc(CO)cn3)CC2)cc1F)N1CC(CNC[C@H](O)[C@@H](O)[C@H](O)[C@H](O)CO)C1 [Example 93, 2-[2-fluoro-4-[3-[1-[5-(hydroxymethyl)pyrimidin-2-yl]-4-piperidyl]propoxy]phenyl]-1-[3-[[[(2S,3R,4R,5R)-2,3,4,5,6-pentahydroxyhexyl]amino]methyl]azetidin-1-yl]ethanone] | 50 to 100 | 1000 to 10000
CCCc1cnc(N2CCC(CCCOc3ccc(CC(=O)N4CC(CNCC(CO)CO)C4)c(F)c3)CC2)nc1 [Example 70, 2-(2-fluoro-4-(3-(1-(5-propylpyrimidin-2-yl)piperidin-4-yl)propoxy)phenyl)-1-(3-(((3-hydroxy-2-(hydroxymethyl)propyl)amino)methyl)azetidin-1-yl)ethan-1-one] | 100 to 130 | ≤ 100
O=C(Cc1ccc(OCCCC2CCN(c3ncc(Cl)cn3)CC2)cc1F)N1CC[C@@H](CNC[C@H](O)[C@@H](O)[C@H](O)[C@H](O)CO)C1 [Example 98, 2-[4-[3-[1-(5-chloropyrimidin-2-yl)-4-piperidyl]propoxy]-2-fluoro-phenyl]-1-[(3S)-3-[[[(2S,3R,4R,5R)-2,3,4,5,6-pentahydroxyhexyl]amino]methyl]pyrrolidin-1-yl]ethanone] | 100 to 130 | ≤ 100
O=C(Cc1ccc(OCCCC2CCN(c3ncc(Cl)cn3)CC2)cc1F)NCCS(=O)(=O)O [Example 10, 2-[[2-[4-[3-[1-(5-chloropyrimidin-2-yl)-4-piperidyl]propoxy]-2-fluoro-phenyl]acetyl]amino]ethanesulfonic acid] | ≥ 130 | 1000 to 10000
O=C(Cc1ccc(OCCCC2CCN(c3ncc(Cl)cn3)CC2)cc1F)NCCCCCNC(CO)CO [Example 1, 2-[4-[3-[1-(5-chloropyrimidin-2-yl)-4-piperidyl]propoxy]-2-fluoro-phenyl]-N-[5-[[2-hydroxy-1-(hydroxymethyl)ethyl]amino]pentyl]acetamide] | ≥ 130 | 100 to 1000
O=C(NC(CO)(CO)CO)[C@@H]1CCN(C(=O)Cc2ccc(OCCCC3CCN(c4ncc(Cl)cn4)CC3)cc2F)C1 [Example 102, (3R)-1-[2-[4-[3-[1-(5-chloropyrimidin-2-yl)-4-piperidyl]propoxy]-2-fluoro-phenyl]acetyl]-N-[2-hydroxy-1,1-bis(hydroxymethyl)ethyl]pyrrolidine-3-carboxamide] | 100 to 130 | ≤ 100

Continued, values first:

Emax [%] | EC50 [nM] | Compound
100 to 130 | ≤ 100 | O=C(Cc1ccc(OCCCC2CCN(c3ncc(Cl)cn3)CC2)cc1F)N1CCC(O)(CNCC(CO)(CO)CO)C1 (centres unmarked) [Example 180, 2-[4-[3-[1-(5-chloropyrimidin-2-yl)-4-piperidyl]propoxy]-2-fluoro-phenyl]-1-[3-hydroxy-3-[[[3-hydroxy-2,2-bis(hydroxymethyl)propyl]amino]methyl]pyrrolidin-1-yl]ethanone]
≥ 130 | ≤ 100 | CCOc1cnc(N2CCC(CCCOc3ccc(CC(=O)N4CC[C@@H](CNCC(O)(CO)CO)C4)c(F)c3)CC2)nc1 [Example 153, 2-[4-[3-[1-(5-ethoxypyrimidin-2-yl)-4-piperidyl]propoxy]-2-fluoro-phenyl]-1-[(3S)-3-[[[2,3-dihydroxy-2-(hydroxymethyl)propyl]amino]methyl]pyrrolidin-1-yl]ethanone]
100 to 130 | ≤ 100 | COCC1(CNCC(CO)(CO)CO)CCN(C(=O)Cc2ccc(OCCCC3CCN(c4ncc(Cl)cn4)CC3)cc2F)C1 (centres unmarked) [Example 122, 2-[4-[3-[1-(5-chloropyrimidin-2-yl)-4-piperidyl]propoxy]-2-fluoro-phenyl]-1-[3-[[[3-hydroxy-2,2-bis(hydroxymethyl)propyl]amino]methyl]-3-(methoxymethyl)pyrrolidin-1-yl]ethanone]
≥ 130 | ≤ 100 | O=C(NC[C@H](O)[C@@H](O)[C@H](O)[C@H](O)CO)[C@H]1CCN(C(=O)Cc2ccc(OCCCC3CCN(c4ncc(Cl)cn4)CC3)cc2F)C1 [Example 127, (3S)-1-[2-[4-[3-[1-(5-chloropyrimidin-2-yl)-4-piperidyl]propoxy]-2-fluoro-phenyl]acetyl]-N-[(2S,3R,4R,5R)-2,3,4,5,6-pentahydroxyhexyl]pyrrolidine-3-carboxamide]
100 to 130 | 100 to 1000 | O=C(Cc1ccc(OCCC2CC(C3CCN(c4ncc(Cl)cn4)CC3)C2)cc1F)N1CC(CNC[C@H](O)[C@@H](O)[C@H](O)[C@H](O)CO)C1 (stereo partly drawn) [Example 123, 2-[4-[2-[3-[1-(5-chloropyrimidin-2-yl)-4-piperidyl]cyclobutyl]ethoxy]-2-fluoro-phenyl]-1-[3-[[[(2S,3R,4R,5R)-2,3,4,5,6-pentahydroxyhexyl]amino]methyl]azetidin-1-yl]ethanone]
100 to 130 | 1000 to 10000 | O=C(Cc1ccc(OCCCC2CCN(c3ncc(Cl)cn3)CC2)nc1)N1CC(CNC[C@H](O)[C@@H](O)[C@H](O)[C@H](O)CO)C1 [Example 179, 2-[6-[3-[1-(5-chloropyrimidin-2-yl)-4-piperidyl]propoxy]-3-pyridyl]-1-[3-[[[(2S,3R,4R,5R)-2,3,4,5,6-pentahydroxyhexyl]amino]methyl]azetidin-1-yl]ethanone]
100 to 130 | 100 to 1000 | O=C(NCCS(=O)(=O)O)C1CN(C(=O)Cc2ccc(OCCCC3CCN(c4ncc(Cl)cn4)CC3)cc2F)C1 [Example 171, 2-[[1-[2-[4-[3-[1-(5-chloropyrimidin-2-yl)-4-piperidyl]propoxy]-2-fluoro-phenyl]acetyl]azetidine-3-carbonyl]amino]ethanesulfonic acid]
